Measurements taken from a melting point compilation (Tetko et al.; mined from patent text by program, amines drawn as free bases though some values may be those of a salt).

Row | melting point | Structure (SMILES)
1 | 167 to 169 °C | Cn1nc(-c2ccccc2)c(Oc2ccc(N)cc2)c1-c1ccccc1
2 | 130 to 131 °C | CCOC(=O)C(C(=O)c1ccc(OC)cc1)N(N)c1ccccn1 (stereo unspecified)
3 | 217 to 218 °C | COc1ccc(CNc2nnc(Cl)c3ccc([N+](=O)[O-])cc23)cc1Cl
4 | 136 to 139 °C | COc1cc(OC)nc(NC(=O)NS(=O)(=O)Oc2ccccc2)n1
5 | 210 to 211 °C | CCCCc1nc(C)n2[nH]c(=O)nc2c1Cc1ccc(-c2ccccc2C(=O)O)cc1
6 | 168 to 170 °C | COc1ccc(C(Sc2cc(Oc3ccccc3)ccc2N)C(O)C(=O)O)cc1Cl (stereo unspecified)
7 | 267 to 271 °C | Cc1[nH]c(C(=O)N2CCC(C(=O)O)CC2)c(C)c1-c1nc2ccc(C(=O)c3ccccc3)cc2[nH]1
8 | 143 to 144 °C | COc1ccc(CCc2ccc(NC(=O)C(=O)c3cccc(C(C)(C)C)c3O)cc2)cc1OC
9 | 76 to 80 °C | COC(=O)C1=C(C)NC(C)=C(C(=O)OCCN2CCN(C(c3ccc(OC)cc3)c3ccc(OC)cc3)CC2)C1c1cccc([N+](=O)[O-])c1 (stereo unspecified)
10 | 158 °C | CCOC(=O)C(C)(C)c1ccc(-n2c(-c3cc(-c4cnc5ccccc5c4)ccn3)cn(C)c2=O)cc1
11 | 220 to 223 °C | O=C(O)C(=O)Nc1cc(-c2ccc(-c3cccc4c3oc3ccccc34)cc2)cn(Cc2ccccc2)c1=O
12 | 242 to 243 °C | C=CCC(C)(C)C(NC(=O)c1ccc(Cl)cc1)Nc1c(Nc2cccnc2)c(=O)c1=O (stereo unspecified)
13 | 193 °C | COCCn1cc(C(=O)NCc2ccc(Cl)cc2)c(=O)c2cc(CO)sc21
14 | 88 to 89 °C | COc1ccc(C(=O)c2cccc([N+](=O)[O-])c2)cc1
15 | 133 to 136 °C | NOCc1cnn(C(c2ccccc2)(c2ccccc2)c2ccccc2)c1
16 | 205 to 207 °C | O=C(Nc1ccc(Oc2ccnc(N3CCCC3)n2)c2ccccc12)c1cc(F)cc(N2CCOCC2)c1
17 | 224 to 225 °C | NC(=O)c1cc(-c2ccnc(Nc3cccc(OC(F)(F)C(F)F)c3)n2)ccn1
18 | 195 to 198 °C | Cc1ccc(C[C@H](NC(=O)[C@@H](NC(=O)OCc2ccccn2)C(C)C)[C@H](O)[C@H](Cc2ccccc2)NC(=O)[C@@H](NC(=O)OCc2ccccn2)C(C)C)cc1
19 | 189 to 190 °C | Cc1ccccc1C(=O)c1ccc(Nc2ccc(Br)cc2NC(=O)OCCl)cc1Cl
20 | 160 °C | O=C1CCC(c2cccc(Cl)c2)(c2cccc(Cl)c2)[C@@H]2CN(C(=O)Cc3ccccc3)C[C@H]12 (racemic)
21 | 92 to 97 °C | CC(C)C(C(=O)O)c1ccc(OC(F)(F)C(F)F)cc1 (stereo unspecified)
22 | 136 to 140 °C | Cc1cccc(-c2nc(C(C)C)[nH]c2-c2cccc(-c3ccc(C(=O)N4CCS(=O)CC4)cc3)c2)n1
23 | 116 to 118 °C | CCCCOC(=O)c1nc(Cl)c2ccc(OC(C)C)cc2c1O
24 | 245 to 247 °C | Cc1nc2cc(N(C)C(=O)c3ccc(Cl)cc3Cl)ccc2n1C
25 | 166 to 167 °C | CNC(=O)c1cccc(CNc2ccccc2C(=O)Nc2cccc(C(F)(F)F)c2)c1
26 | 198 to 201 °C | CN1C(=O)C2(COc3cc4c(cc32)OCCO4)c2c(Oc3ccc(C(F)(F)F)cc3)cccc21 (stereo unspecified)
27 | 101 to 102 °C | O=[N+]([O-])c1ccc(Oc2ccc(Cl)c(Cl)c2)nc1
28 | 143 to 145 °C | COc1ccc(-c2nn(-c3ccc(C)cc3)c3ncccc23)cc1
29 | 218 to 219 °C | Oc1ccc(-c2cc3ccccc3cn2)cc1

Further lines, the compound ahead of its results:

Row | Structure (SMILES) | melting point
30 | CCOC(=O)c1c(CI)nc2cc(OC)c(OC)cc2c1-c1ccc(OC)c(OC)c1 | 170 to 171 °C
31 | Nc1cc(Oc2cc(N)cc(C(F)(F)F)c2)cc(C(F)(F)F)c1 | 223 to 224 °C
32 | COC(=O)CCc1cnoc1-c1ccc(OC)c(OC)c1 | 68 to 69 °C
33 | CC(C)(C)OC(=O)Nc1ccn2nc(N3CCOCC3)nc2c1 | 92 to 93 °C
34 | Cn1cc(SC(F)(F)F)c(N)n1 | 138 to 140 °C
35 | CCOCC(=NO)C(C)(C)NCC(Cn1ccnc1[N+](=O)[O-])ONC(C)(C)C(CCn1ccnc1[N+](=O)[O-])=NO (stereo unspecified) | 105 to 107 °C
36 | Nc1ncc(-c2ccnc(N3CCOCC3)n2)c2ccccc12 | 255 to 256 °C
37 | Cc1cc(-c2ccc(C(F)(F)F)cc2)cn2c(-c3nc(-c4ccnc(N)c4)no3)cnc12 | 264 °C
38 | CCSc1ccc(-c2coc3ccc(-c4nnc(C)o4)cc23)c(Cl)c1 | 108 to 109 °C
39 | CCCCN(CCCC)C(=O)N1CCc2ccc(S(=O)(=O)NC(=O)NC3CCCCC3)cc2CC1 | 118 to 120 °C
40 | CCCC(O)C1(C)OC(C)=C(O)C1=O (stereo unspecified) | 103 to 104 °C
41 | O=C(Nc1ccc(C(F)(F)F)cc1)NC1CCN(S(=O)(=O)c2ccc(C(=O)O)cc2)CC1 | 188 to 192 °C
42 | CC(Cl)(Cl)C(NC(=O)c1cc(F)cc(F)c1)NC(=NC#N)Nc1ccc(C(F)(F)F)nc1 (stereo unspecified) | 202 to 203 °C
43 | COC(=O)c1ncoc1-c1ccc([N+](=O)[O-])cc1Cl | 121 to 122 °C
44 | Cc1cc(-c2cc(C(F)F)n3ncc(-c4nc(-c5ccc(N)nc5)no4)c3n2)ccc1C(F)(F)F | 231 °C
45 | O=C(OC1CCCCC1=O)c1ccc(Cl)cc1 (stereo unspecified) | 84 to 85 °C
46 | FCC=Cc1ncn(C(c2ccccc2)(c2ccccc2)c2ccccc2)n1 | 149 °C
47 | CS(=O)(=O)c1ccc(-c2cnn(-c3cccc(Br)c3)c(=O)c2-c2ccc(F)cc2)cc1 | 210 to 212 °C
48 | Nc1ncnc2c1ncn2CCCN1CCC(COc2ccccc2)CC1 | 142 to 144 °C

Row | Structure (SMILES) | melting point
49 | CCCCCCCCCCCCCCOc1ccc(C(=O)Cl)cc1Cl | 90 °C
50 | CCN1CCN(c2ccc(C(=O)NCCCCCCCCCCCCO)cn2)CC1 | 108 to 110 °C
51 | O=P(O)(CO)c1ccccc1 | 134 to 136 °C
52 | NS(=O)(=O)c1ccc2c(c1)C(O)CCC2 (stereo unspecified) | 137 to 138 °C
53 | Cc1cc2c(cc1-c1cc(C=C3SC(=O)NC3=O)ccc1N(C)C)N(C(C)C)C(=O)CC2(C)C | 274 to 276 °C
54 | CN1CCC(=O)C(C2c3ccccc3Sc3ccccc32)C1 (stereo unspecified) | 155 to 156 °C
55 | OC(CCCN1CC=C(c2noc(C3CC3)n2)CC1)c1ccc(F)cc1 (stereo unspecified) | 89 to 92 °C
56 | CS(=O)(=O)Nc1cccc(OCc2c[nH]cn2)c1 | 178 to 180 °C
57 | O=c1[nH]c(=O)n(CCCCl)c2ccccc12 | 183 to 184 °C
58 | Nc1cc2c(c(C(=O)O)c1)NCCC2 | 207 to 208 °C
59 | Cc1ccc(-c2ccc3c(c2)C=C(C(=O)Nc2ccc(CN4CCCCC4)cc2)CC(C)O3)cc1 (stereo unspecified) | 175 to 176 °C
60 | Cc1oc(=O)oc1CN1CCN(c2cc3c(cc2F)c(=O)c(C(=O)O)c2n3C(c3ccccc3)S2)CC1 (stereo unspecified) | 201 to 202 °C
61 | CCCCOc1ccc(S(=O)(=O)C2(C(=O)O)CCN(CCCC)CC2)cc1 | 182 °C
62 | Cc1nc(-c2ccc(Cl)cc2)oc1COC(C)(C)C(N)=O | 177 to 178 °C
63 | O=C(O)c1ccc(-c2ccc(C(=O)O)c(C(=O)O)c2)cc1C(=O)O | 295 to 302 °C
64 | CCCCOC1C=CC(=O)N1S(=O)(=O)c1ccccn1 (stereo unspecified) | 74 to 75 °C
65 | Cc1ccc(NC(=O)c2ccccc2[N+](=O)[O-])cc1C(F)(F)F | 172 to 173 °C
66 | C=CC1CC2=CCCCC2C2CCC3(C)C(O)CCC3C12 (stereo unspecified) | 117 to 121 °C
